Laboratory results taken from patent US12398141B2 (SHANGHAI SYNERGY PHARMACEUTICAL SCIENCES CO., LTD, priority 2019, dated 2025).

Assays:
Sprague-Dawley (SD) mice = experiment: Concanavalin-induced paw swelling in mice; assay type: in vivo; conditions: 10 mg/kg intragastric; for Paw swelling rate_1 h (%): 1 h; for Paw swelling rate_2 h (%): 2 h; for Paw swelling rate_4 h (%): 4 h; for Paw swelling rate_6 h (%): 6 h
Description: (§1) The inhibiting effects of compounds H13, H14, H09, H11 and compounds of Example 12 on paw swelling in […] were determined after intragastric administration by using Sprague-Dawley (SD) […] (ShanghaiSippr-BK laboratory animal Co. Ltd.), aged 6-7 weeks and weighing 160-180 g as test animals. The anti-inflammatory pharmacodynamics characteristic of the compounds of the invention was discussed.
A certain amount of compounds were taken and dissolved in 4% Tween 80/0.5% hydroxy propyl methyl cellulose solution.
Mice were given compounds H01, H07, H11, H12, H14, H15, H22, H25, H29, H30, H33, H39, and H44 and the positive drug indomethacin (Diamond Reagent Co., Ltd., China) by intragastric administration at the dosages shown in the table below and 0.1 ml 0.03% (W/V) concanavalin was injected subcutaneously into the plantar 0.5 h later. A paw volume was measured with a paw swelling meter before modeling and 1 h, 2 h, 4 h and 6 h after modeling. According to the formula: paw swelling rate=(paw volume after administration−basic paw volume)/basic paw volume×100, the inhibiting effect of the compounds on paw volume was calculated. The basic paw volume was a paw volume before administration.

TF-1 cell = TF-1 cell proliferation test; assay type: cell-based; conditions: Homo sapiens, 72 h
Blast T cell = experiment: Cell proliferation test of IL-2 stimulated Blast T cell; assay type: cell-based; conditions: Homo sapiens; IL-2 stimulated Blast T cell proliferation, 72 hours
male ICR mice = experiment: Carrageenan-induced paw swelling in mice; assay type: in vivo; conditions: 10 mg/kg intragastric; for Paw swelling_0.5 h (%): 0.5 h; for Paw swelling rate_1 h (%): 1 h; for Paw swelling rate_2 h (%): 2 h
Description: as §1, with “H01, H07, H11, H12,” for “H13,”, “H15, H22, H25, H29, H30, H33, H39” for “H09, H11”, “H44” for “compounds of Example 12”, “male ICR” for “Sprague-Dawley (SD)”, “8” for “6-7”, “22-24” for “160-180”
A certain amount of compounds were taken and dissolved in 4% Tween 80/0.5% hydroxy propyl methyl cellulose solution. A volume of intragastric administration in mice was 10 ml/kg.
Mice were given 10 mg/kg compounds H01, H07, H11, H12, H14, H15, H22, H25, H29, H30, H33, H39, and H44 and the positive drug indomethacin (Diamond Reagent Co., Ltd., China) by intragastric administration at the dosages shown in the table below and 20 μL 1% (W/V) carrageenan was injected subcutaneously into the plantar 0.5 h later. A paw volume was measured with a paw swelling meter before and at different time points after modeling (0.5 h, 1 h and 2 h). According to the formula: paw swelling rate=(paw volume after administration−basic paw volume)/basic paw volume×100, the inhibiting effect of the compounds on paw volume was calculated. The basic paw volume was a paw volume before administration.

SMILES | Paw swelling rate_1 h (%) (Sprague-Dawley (SD) mice) | Paw swelling rate_2 h (%) (Sprague-Dawley (SD) mice) | Paw swelling rate_4 h (%) (Sprague-Dawley (SD) mice) | Paw swelling rate_6 h (%) (Sprague-Dawley (SD) mice) | IC50 (TF-1 cell) [µM] | IC50 (Blast T cell) [µM] | Paw swelling_0.5 h (%) (male ICR mice) | Paw swelling rate_1 h (%) (male ICR mice) | Paw swelling rate_2 h (%) (male ICR mice)
COc1nsc(NC(=O)N2C[C@H]3C[C@H](N(C)c4c(C#N)cnc5[nH]ccc45)C[C@H]3C2)n1 [Compound H07, (3aR,5s,6aS)-4-({2-[(3-methoxy-1,2,4-thiadiazole-5-yl)carbamoyl]-hexahydrocyclopenta[c]pyrrole-5-yl}-methyl-amino)-1H-pyrrolo[2,3-b]pyridin-5-carbonitrile] | 25.20 ± 2.10 | 32.10 ± 1.70 | 22.30 ± 4.20 | 21.30 ± 4.20 | 0.073 | 0.024 | 37.02 ± 1.35 | 42.33 ± 2.20 | 41.24 ± 3.36
C[C@@H]1CCN(C(=O)CC#N)C[C@@H]1N(C)c1c(C#N)cnc2[nH]ccc12 [Compound H11, 4-{[(3R,4R)-1-(2-cyanoacetyl)-4-methylpiperidin-3-yl]-methyl-amino}-1H-pyrrolo[2,3-b]pyridin-5-carbonitrile] | 23.50 ± 2.40 | 25.80 ± 3.30 | 31.00 ± 2.10 | 32.00 ± 2.10 | 0.68 | 0.013 | 30.22 ± 2.62 | 39.76 ± 1.20 | 40.25 ± 5.47
N#Cc1cnc2[nH]ccc2c1N[C@H]1C[C@@H](NS(=O)(=O)CCC(F)(F)F)C1 [Compound H12, (cis)-4-{[3-(3,3,3-trifluoropropanesulfonamido)-cyclobutyl-1-yl]-amino}-1H-pyrrolo[2,3-b]pyridin-5-carbonitrile] | 28.90 ± 2.00 | 23.10 ± 3.00 | 24.00 ± 2.90 | 24.00 ± 3.00 | 1.67 | 0.011 | 38.45 ± 4.37 | 45.64 ± 3.58 | 41.66 ± 5.38
CCCS(=O)(=O)N[C@H]1C[C@@H](N(C)c2c(C#N)cnc3[nH]ccc23)C1 [Compound H14, (cis)-4-{[3-(propanesulfonamido)-cyclobutyl-1-yl]-methyl-amino}-1H-pyrrolo[2,3-b]pyridin-5-carbonitrile] | 32.10 ± 5.20 | 25.90 ± 5.00 | 25.50 ± 4.00 | 25.10 ± 4.20 | 0.63 | 0.017 | 39.03 ± 4.53 | 40.65 ± 2.51 | 39.00 ± 4.25
CN(c1c(C#N)cnc2[nH]ccc12)[C@H]1C[C@@H](NS(=O)(=O)CCC(F)(F)F)C1 [Compound H15, (cis)-4-{[3-(3,3,3-trifluoropropanesulfonamide)-cyclobutyl-1-yl]-methyl-amino}-1H-pyrrolo[2,3-b]pyridin-5-carbonitrile] | 24.50 ± 2.50 | 25.90 ± 3.40 | 32.00 ± 2.30 | 31.00 ± 2.30 | 0.073 | 0.014 | 36.02 ± 1.37 | 43.33 ± 2.30 | 43.24 ± 4.36
CN(c1c(C#N)cnc2[nH]ccc12)[C@H]1C[C@@H]2CN(C(=O)NCC(F)(F)F)C[C@@H]2C1 [Compound H22, (3aR,5s,6aS)-4-({2-[(2,2,2-trifluoroethyl)-carbamoyl]-hexahydrocyclopenta[c]pyrrole-5-yl}-methyl-amino)-1H-pyrrolo[2,3-b]pyridin-5-carbonitrile] | 29.80 ± 2.00 | 29.10 ± 3.00 | 31.00 ± 2.90 | 31.00 ± 2.90 | 1.76 | 0.019 | 31.22 ± 2.62 | 41.76 ± 1.20 | 42.25 ± 5.67
CN(c1c(C#N)cnc2[nH]ccc12)[C@H]1C[C@@H]2CN(C(=O)Nc3ccc(Cl)c(C(F)(F)F)c3)C[C@@H]2C1 [Compound H25, (3aR,5s,6aS)-N-(4-chloro-3-(trifluoromethyl)phenyl)-5-((5-cyano-1H-pyrrolo[2,3-b]pyridin-4-yl)(methyl)amino)hexahydrocyclopentadiene[c]pyrrole-2(1H)-carboxamide] | 32.10 ± 5.20 | 26.90 ± 5.00 | 24.50 ± 4.00 | 24.50 ± 4.00 | 0.73 | 0.02 | 37.45 ± 4.37 | 44.64 ± 3.68 | 44.66 ± 5.58
COc1nsc(NC(=O)N[C@H]2C[C@@H](N(C)c3c(C#N)cnc4[nH]ccc34)C2)n1 [Compound H29, (cis)-1-(3-((5-cyano-1H-pyrrolo[2,3-b]pyridin-4-yl)(methyl)amino)cyclobutyl)-3-(3-methoxy-1,2,4-thiadiazole-5-yl)urea] | 23.70 ± 1.60 | 23.20 ± 2.60 | 32.20 ± 3.50 | 29.20 ± 3.50 | 0.87 | 0.016 | 33.03 ± 4.23 | 41.65 ± 2.21 | 40.10 ± 4.32
CC(C)c1nsc(NC(=O)N2C[C@H]3C[C@H](N(C)c4c(C#N)cnc5[nH]ccc45)C[C@H]3C2)n1 [Compound H30, (3aR,5s,6aS)-4-({2-[(3-isopropyl-1,2,4-thiadiazole-5-yl)carbamoyl]-hexahydrocyclopenta[c]pyrrole-5-yl}-methyl-amino)-1H-pyrrolo[2,3-b]pyridin-5-carbonitrile] | 24.40 ± 2.40 | 25.20 ± 3.40 | 26.00 ± 2.30 | 24.50 ± 2.30 | 1.23 | 0.018 | 33.12 ± 1.38 | 43.43 ± 2.12 | 44.52 ± 4.37
CN(C)c1nsc(NC(=O)N2C[C@H]3C[C@H](N(C)c4c(C#N)cnc5[nH]ccc45)C[C@H]3C2)n1 [Compound H33, (3aR,5s,6aS)-4-({2-[(3-dimethylamino-1,2,4-thiadiazole-5-yl)carbamoyl]-hexahydrocyclopenta[c]pyrrole-5-yl}-methyl-amino)-1H-pyrrolo[2,3-b]pyridin-5-carbonitrile] | 27.80 ± 2.00 | 29.20 ± 3.10 | 30.10 ± 2.90 | 30.10 ± 2.90 | 1.1 | 0.023 | 30.78 ± 2.62 | 31.76 ± 1.86 | 41.75 ± 5.67
N#Cc1cnc2[nH]ccc2c1N1CC2CN(C(=O)NCC(F)(F)F)CC21 (stereo not drawn) [Compound H39, 6-(5-cyano-1H-pyrrolo[2,3-b]pyridin-4-yl)-N-(2,2,2-trifluoroethyl)-3,6-diazabicyclo[3.2.0]heptane-3-carboxamide] | 31.10 ± 2.30 | 25.60 ± 4.00 | 26.30 ± 3.30 | 25.30 ± 3.30 | 0.69 | 0.015 | 30.45 ± 1.74 | 26.44 ± 3.68 | 38.99 ± 5.58
CN(c1c(C#N)cnc2[nH]ccc12)[C@H]1C[C@@H]2CN(C(=O)Nc3nc(OCC(C)(C)N)ns3)C[C@@H]2C1 [Compound H44, (3aR,5s,6aS)-5-((5-cyano-1H-pyrrolo[2,3-b]pyridin-4-yl)(methyl)amino)-N-(3-(2-amino-2-methyl-propoxy)-1,2,4-thiadiazole-5-yl)hexahydrocyclopentadiene[c]pyrrole-2(1H)-carboxamide] | 23.80 ± 1.60 | 24.80 ± 2.50 | 24.20 ± 2.90 | 23.50 ± 2.90 | 0.73 | 0.014 | 31.03 ± 2.43 | 42.65 ± 2.21 | 41.56 ± 3.32
